Test results: ChEMBL document CHEMBL1201862, “PubChem BioAssay data set” (2004)
Activity calls are given as the source filed them.

Key:
Cytochrome P450 2D6 = Cytochrome P450 2D6 (Homo sapiens, UniProt P10635);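 further: CYP2D6 member of a cytochrome P450 panel assay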
[1] = target: T1, Ubiquitin-conjugating enzyme E2 N (Homo sapiens, UniProt P61088); type: functional;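 further: Dose-response confirmation in a TR-FRET assay detecting UBC13-driven polyubiquitin chain formation, inhibition measured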
T1 sequence (P61088 whole entry): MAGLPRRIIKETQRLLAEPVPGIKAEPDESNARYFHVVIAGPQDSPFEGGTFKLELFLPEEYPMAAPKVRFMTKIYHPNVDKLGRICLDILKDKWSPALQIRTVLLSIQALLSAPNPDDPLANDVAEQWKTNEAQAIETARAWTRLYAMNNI

[2] = microbe, parasite or virus in culture; type: functional; conditions: Mycobacterium tuberculosis
Protein RecA = target: T2, Protein RecA (Mycobacterium tuberculosis, UniProt P9WHJ3); assay: Fluorescence Cell-Free Homogeneous Dose Retest to Identify Inhibitors of RecA-Intein Splicing Activity. [Related pubchem assays (depositor defined):AID2097, AID2223, AID489010, AID492950]; type: functional
T2 sequence (P9WHJ3 whole entry): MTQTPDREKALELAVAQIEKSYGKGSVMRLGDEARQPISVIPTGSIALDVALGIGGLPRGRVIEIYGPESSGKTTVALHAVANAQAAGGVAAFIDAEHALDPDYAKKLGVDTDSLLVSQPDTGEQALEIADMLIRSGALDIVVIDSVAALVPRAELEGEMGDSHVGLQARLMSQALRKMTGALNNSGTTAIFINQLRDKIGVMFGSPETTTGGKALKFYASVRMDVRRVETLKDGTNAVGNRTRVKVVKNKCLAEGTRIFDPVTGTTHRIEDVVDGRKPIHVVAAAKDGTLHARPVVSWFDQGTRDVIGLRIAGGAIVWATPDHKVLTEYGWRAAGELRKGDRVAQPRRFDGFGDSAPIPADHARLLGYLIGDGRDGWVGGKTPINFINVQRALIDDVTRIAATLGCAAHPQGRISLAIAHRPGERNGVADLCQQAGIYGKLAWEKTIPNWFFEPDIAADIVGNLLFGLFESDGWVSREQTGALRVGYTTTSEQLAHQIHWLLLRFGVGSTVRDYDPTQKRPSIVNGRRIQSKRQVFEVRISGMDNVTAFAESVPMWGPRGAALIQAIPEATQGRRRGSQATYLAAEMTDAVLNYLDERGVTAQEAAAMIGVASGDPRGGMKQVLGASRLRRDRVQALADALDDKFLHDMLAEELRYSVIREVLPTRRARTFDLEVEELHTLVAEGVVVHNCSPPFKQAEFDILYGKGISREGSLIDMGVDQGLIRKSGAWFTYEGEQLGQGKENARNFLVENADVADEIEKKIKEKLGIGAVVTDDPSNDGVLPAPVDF

[3] = target: T3, Replicative DNA helicase DnaB (Mycobacterium tuberculosis, UniProt P9WMR3); assay: DnaB intein splicing inhibitors, dose response, biochemical, cell-free fluorescence (AID 449749); type: functional
T3 sequence (P9WMR3 whole entry): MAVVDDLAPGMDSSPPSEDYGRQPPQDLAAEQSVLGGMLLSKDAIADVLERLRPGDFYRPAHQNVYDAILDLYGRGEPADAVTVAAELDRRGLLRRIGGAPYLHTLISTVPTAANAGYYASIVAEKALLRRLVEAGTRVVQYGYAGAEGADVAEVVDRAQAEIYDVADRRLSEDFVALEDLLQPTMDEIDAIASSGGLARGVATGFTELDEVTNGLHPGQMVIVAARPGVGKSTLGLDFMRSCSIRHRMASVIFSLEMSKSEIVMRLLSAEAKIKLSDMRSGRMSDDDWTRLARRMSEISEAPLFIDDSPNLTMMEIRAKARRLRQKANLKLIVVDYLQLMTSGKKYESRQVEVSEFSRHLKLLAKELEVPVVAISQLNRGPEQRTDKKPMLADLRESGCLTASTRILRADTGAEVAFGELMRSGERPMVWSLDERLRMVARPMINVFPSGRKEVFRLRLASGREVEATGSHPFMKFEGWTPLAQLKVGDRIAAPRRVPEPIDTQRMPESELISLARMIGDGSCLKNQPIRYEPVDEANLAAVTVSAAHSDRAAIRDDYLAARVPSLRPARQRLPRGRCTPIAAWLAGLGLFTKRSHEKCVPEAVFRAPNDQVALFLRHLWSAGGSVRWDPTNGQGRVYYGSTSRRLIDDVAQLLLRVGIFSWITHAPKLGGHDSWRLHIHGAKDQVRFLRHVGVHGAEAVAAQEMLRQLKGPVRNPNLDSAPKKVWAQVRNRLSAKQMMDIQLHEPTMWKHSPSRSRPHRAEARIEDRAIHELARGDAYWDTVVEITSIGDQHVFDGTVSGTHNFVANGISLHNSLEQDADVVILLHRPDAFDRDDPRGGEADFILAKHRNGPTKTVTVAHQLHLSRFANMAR

[4] = target: T4, Corticotropin-releasing factor receptor 2/Corticotropin-releasing factor-binding protein (Homo sapiens, UniProt P24387+Q13324); assay: Dose Response confirmation of uHTS hits for small molecule antagonists of the CRF-binding protein and CRF-R2 receptor complex.; type: functional; conditions: read-out: IC50_Mean
T4 sequence (Q13324 whole entry): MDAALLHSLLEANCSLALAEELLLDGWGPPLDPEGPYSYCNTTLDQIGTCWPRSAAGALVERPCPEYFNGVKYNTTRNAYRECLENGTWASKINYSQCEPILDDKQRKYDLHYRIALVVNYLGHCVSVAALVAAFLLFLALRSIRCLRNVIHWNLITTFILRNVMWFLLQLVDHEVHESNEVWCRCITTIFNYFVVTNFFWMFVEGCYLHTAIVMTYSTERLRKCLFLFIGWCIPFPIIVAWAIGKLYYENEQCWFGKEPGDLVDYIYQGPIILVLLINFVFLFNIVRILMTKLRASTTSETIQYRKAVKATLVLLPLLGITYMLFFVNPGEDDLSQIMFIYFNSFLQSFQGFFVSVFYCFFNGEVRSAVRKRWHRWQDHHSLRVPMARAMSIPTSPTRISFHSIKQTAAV
T4 sequence (P24387 whole entry): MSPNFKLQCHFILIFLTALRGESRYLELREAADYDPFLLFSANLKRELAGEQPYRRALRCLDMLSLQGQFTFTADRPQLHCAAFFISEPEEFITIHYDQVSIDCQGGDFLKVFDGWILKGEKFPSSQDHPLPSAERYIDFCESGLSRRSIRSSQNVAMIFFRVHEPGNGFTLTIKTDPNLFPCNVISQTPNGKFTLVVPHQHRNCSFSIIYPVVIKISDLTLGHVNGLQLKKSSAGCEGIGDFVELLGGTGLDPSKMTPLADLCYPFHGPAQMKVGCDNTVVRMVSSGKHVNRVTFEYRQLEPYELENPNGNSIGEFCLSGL

Streptokinase A = target: T5, Streptokinase A (Streptococcus pyogenes serotype M1, UniProt P10520); assay: viability-normalized secreted streptokinase activity reduction – plasminogen activation absorbance, OD405, dose response (AID 1914); type: functional, Streptococcus pyogenes M1 GAS;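 further: secreted streptokinase activity via plasminogen activation per viability signal from cell pellet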
T5 sequence (P10520 whole entry): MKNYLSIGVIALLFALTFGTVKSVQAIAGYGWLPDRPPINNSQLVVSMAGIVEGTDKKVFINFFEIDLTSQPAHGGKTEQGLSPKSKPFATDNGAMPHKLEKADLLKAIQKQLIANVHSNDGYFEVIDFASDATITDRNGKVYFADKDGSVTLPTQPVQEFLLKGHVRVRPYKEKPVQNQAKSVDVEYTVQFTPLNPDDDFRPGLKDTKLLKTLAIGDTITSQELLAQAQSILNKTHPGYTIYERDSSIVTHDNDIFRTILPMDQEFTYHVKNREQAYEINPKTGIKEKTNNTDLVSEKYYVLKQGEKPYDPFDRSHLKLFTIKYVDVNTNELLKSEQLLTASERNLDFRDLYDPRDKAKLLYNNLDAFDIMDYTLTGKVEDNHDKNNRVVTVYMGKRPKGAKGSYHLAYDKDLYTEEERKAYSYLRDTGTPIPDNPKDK

Vero = assay: cells; type: functional; conditions: Chlorocebus sabaeus
[5] = test system: Streptococcus sp. 'group A'; assay: Streptococcus pyogenes SK(-)GAS viability under kanamycin – luminescence, BacTiterGlo, confirmation, counter-screen for streptokinase expression inhibitor project, dose response (AID 1900); type: functional, organism-based
Streptococcus = assay: GAS UMAA2166 growth inhibition – luminescence, BacTiterGlo, counter-screen for streptokinase expression inhibitor project, dose response (AID 1915); type: functional, organism-based;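 further: potency for reduction of bacterial viability or growth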
[6] = target: T4, Corticotropin-releasing factor receptor 2/Corticotropin-releasing factor-binding protein; assay: activators of CRF receptor 2 with binding protein – uHTS hits, confirmation (AID 602473); type: functional; conditions: read-out: EC50_Mean
cells [7] = type: functional, cell-based
cells [8] = type: functional, cell-based; remark: listed apart in the source
Cytochrome P450 3A4 = Cytochrome P450 3A4 (Homo sapiens, UniProt P08684);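 further: CYP3A4 tested as one member of a cytochrome P450 panel screen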
H9c2 = assay: cells; type: functional, cell-based; conditions: Rattus norvegicus, H9c2, Myocardium;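 further: confirmatory concentration-response retest of ultra-high-throughput screening hits for modulation of myocardial damage; cell death induced by hydrogen peroxide oxidative stress; compound pretreatment for 60 min then peroxide exposure for 2 h; potency is for protecting the cells against peroxide damage rather than for killing them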
INS1 = assay: INS-1E survival protection against cytokine death – cell-based, luminescence, retest, dose response (AID 449756); type: functional; conditions: Rattus norvegicus;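 further: cell death triggered by IL-1 beta plus TNF-alpha plus IFN-gamma mixture; protective hits raise ATP signal compared with cytokine alone wells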

Sequence of Cytochrome P450 2D6 (P10635 whole entry): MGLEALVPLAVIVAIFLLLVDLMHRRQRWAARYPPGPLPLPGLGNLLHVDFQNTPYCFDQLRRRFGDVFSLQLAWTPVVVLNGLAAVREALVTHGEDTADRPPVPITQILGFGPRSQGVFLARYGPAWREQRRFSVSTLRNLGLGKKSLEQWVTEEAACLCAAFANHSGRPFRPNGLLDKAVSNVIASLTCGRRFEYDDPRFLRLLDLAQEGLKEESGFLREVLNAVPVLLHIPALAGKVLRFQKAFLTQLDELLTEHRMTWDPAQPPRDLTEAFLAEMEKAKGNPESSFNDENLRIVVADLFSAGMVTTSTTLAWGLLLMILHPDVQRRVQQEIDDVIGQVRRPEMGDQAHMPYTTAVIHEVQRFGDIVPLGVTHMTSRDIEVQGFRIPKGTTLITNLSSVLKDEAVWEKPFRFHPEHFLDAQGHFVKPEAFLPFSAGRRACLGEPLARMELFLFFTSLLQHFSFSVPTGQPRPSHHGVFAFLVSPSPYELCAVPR
Sequence of Cytochrome P450 3A4 (P08684 whole entry): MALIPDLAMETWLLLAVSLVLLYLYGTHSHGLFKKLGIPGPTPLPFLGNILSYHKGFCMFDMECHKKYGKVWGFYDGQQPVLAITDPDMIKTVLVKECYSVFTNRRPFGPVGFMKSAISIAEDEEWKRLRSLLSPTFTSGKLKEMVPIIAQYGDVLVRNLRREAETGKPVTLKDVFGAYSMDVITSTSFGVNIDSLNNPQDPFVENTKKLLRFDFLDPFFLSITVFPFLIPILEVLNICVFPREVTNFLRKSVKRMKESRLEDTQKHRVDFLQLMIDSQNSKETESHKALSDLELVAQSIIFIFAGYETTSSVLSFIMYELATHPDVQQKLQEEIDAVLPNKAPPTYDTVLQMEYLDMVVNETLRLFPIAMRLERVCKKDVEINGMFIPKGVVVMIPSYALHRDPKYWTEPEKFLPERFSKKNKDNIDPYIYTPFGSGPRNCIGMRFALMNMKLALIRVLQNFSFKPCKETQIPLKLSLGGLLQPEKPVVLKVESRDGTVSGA

CC(=O)N1CCC2(CCCN(c3ncccn3)C2)CC1
AC50 (Cytochrome P450 2D6): 31.6 µM (inconclusive)

O=C(C(=O)N1CCOCC1)c1cn(Cc2ccccc2)c2ccccc12
IC50 [1]: > 20 µM (inactive)

C=CCn1c(Cc2cccs2)nnc1SCC(=O)Nc1ccc(C(=O)OCC)cc1
CC50 [2]: > 40 µM (active)

O=C(CN1C(=O)S/C(=C\C=C\c2ccccc2)C1=O)Nc1ccc(C(=O)O)cc1
EC50 (Protein RecA): > 380 µM (inactive)
AC50 [3]: 177 µM (active)

Cc1ccc(N=Nc2ccc(O)c(P(=O)(c3ccccc3)c3ccccc3)c2)cc1
IC50 [4]: > 47.1 µM (inactive)
EC50 (Streptokinase A): > 150 µM (not active)
CC50 (Vero): > 25 µM (active)
EC50 [5]: 3.58 µM (active)
EC50 (Streptococcus): 110 µM (active)
EC50 [6]: > 53 µM (inactive)

Cc1cc(C)cc(N(CC(=O)NCCSc2ccccn2)S(=O)(=O)c2ccccc2)c1
AC50 (Cytochrome P450 2D6): 11.2 µM (inconclusive)

COc1ccc(NC(=S)N2CCN(C(=O)c3ccccc3)CC2)cc1
EC50 (cells [7]): > 350 µM (not active)
EC50 (cells [8]): > 350 µM (not active)

Cn1ncc(Cl)c1C(=O)Nc1nc2ccc(Cl)cc2s1
EC50 (cells [7]): > 350 µM (not active)
EC50 (cells [8]): 0.85 µM (active)

COc1cc(C(c2c(C)n[nH]c2O)c2c(C)n[nH]c2O)cc(Cl)c1O
EC50 (Protein RecA): 0.453 µM (active)
AC50 [3]: 2.6 µM (active)

Cc1ccc(-n2nc(C)c3c2OC(N)=C(C#N)C3c2ccco2)cc1 (centres undefined)
AC50 (Cytochrome P450 3A4): 17.8 µM (inconclusive)
EC50 (Protein RecA): 6.22 µM (inconclusive)
AC50 [3]: 35.1 µM (inconclusive)

NC(=O)c1nsc(C(=O)N(CCc2ccccc2)C(C(=O)NC2CCCC2)c2ccco2)c1N (centres undefined)
IC50 (H9c2): > 79 µM (inactive)

COc1ccc(NC(=O)CNC(=O)Cc2cccc3ccccc23)c(OC)c1
EC50 (cells [7]): > 350 µM (not active)
EC50 (cells [8]): > 350 µM (not active)

N#Cc1ccc(CN2CCC3(CC2)CCN(C(=O)c2cccc(F)c2)CC3)cc1
AC50 (Cytochrome P450 2D6): 12.6 µM (inconclusive)

Cc1cc(C)cc(C(=O)Nc2ccc(NC(=O)c3cccs3)cc2)c1
IC50 (H9c2): > 79 µM (inactive)

CCOC(=O)C1=C(c2ccccc2)N=c2s/c(=C\c3ccco3)c(=O)n2C1c1cccs1 (centres undefined)
AC50 (Cytochrome P450 3A4): 22.4 µM (inconclusive)
AC50 (Cytochrome P450 2D6): 15.8 µM (inconclusive)

COc1cc2c(cc1OC)C1(Nc3c-2c(-c2ccccc2)nn3-c2ccccc2)C(=O)Nc2ccccc21 (centres undefined)
CC50 [2]: 10.4 µM (active)

O=C(CSc1nnc(Cc2cccs2)n1CCc1ccccc1)N1CCCc2ccccc21
IC50 (H9c2): > 79 µM (inactive)

O=C(N/N=C/c1ccc2c(c1)OCO2)c1ccc(NC(=O)c2ccccc2Cl)cc1
IC50 (H9c2): 9.19 µM (active)

CCOc1ccc(N(C(=O)c2snc(C(N)=O)c2N)C(C(=O)NC2CCCC2)C(C)C)cc1 (centres undefined)
IC50 [1]: > 20 µM (inactive)

Oc1c(Cl)cc(Cl)cc1/C=N/c1ccc(N2CCOCC2)cc1
IC50 (H9c2): > 79 µM (inactive)

CC(C)(C)NC(=O)COC(=O)c1ccc(Cl)nc1
EC50 (cells [7]): > 350 µM (not active)
EC50 (cells [8]): > 350 µM (not active)

Cc1nc2ccccc2c2c1C(=O)N(C)C2=O
EC50 (Protein RecA): 0.794 µM (active)
AC50 [3]: 4.71 µM (active)

COc1cc(SC)ccc1C(=O)Nc1ccc(C)cc1C
EC50 (cells [7]): > 350 µM (not active)
EC50 (cells [8]): 5.81 µM (active)

CC(C)C1Nc2ccc(C(=O)N3CCN(c4ccccn4)CC3)cc2NC1=O (centres undefined)
IC50 (H9c2): 21.2 µM (active)

CN1CCN(Cc2nc(O)c3ccccc3n2)CC1
IC50 (H9c2): 24 µM (active)

CCCNC(=O)c1c(N)n(-c2cccc(OC)c2)c2nc3ccccc3nc12
AC50 (INS1): 36.8 µM (active)
IC50 (H9c2): 28.5 µM (active)

O=C(CCc1nc(O)c2ccccc2n1)N1CCN(c2ccc(F)cc2)CC1
IC50 (H9c2): > 79 µM (inactive)
